“Also recorded” adds a separate entry of the source.
Experiments:
[1] = tested on: TNFα expression in Raw264.7 macrophages; test: PAMP induced TNFα expression in Raw264.7 macrophages; assay type: cell-based, mouse; details: for LPS induced TNFα expression under IGF-1R inhibition: IGF-1R inhibitor 10 μM pretreatment 30 minutes, LPS 0.1 μg/ml
Procedure: To identify the anti-inflammatory mechanism of cathelicidin, human PBMCs and mouse macrophages to were exposed to PAMP signals (LPS and E. coli DNA) in the presence of cathelicidin LL-37 or mCRAMP (1-10 μM).

CCD-18Co fibroblasts = test: β-tubulin expression and tubulin distribution in CCD-18Co fibroblasts; assay type: cell-based, human
Excerpt: Results are representative of 3 independent experiments.

[2] = tested on: human colonic CCD-18Co fibroblasts; test: TGF-β1 and IGF-1 induced collagen (COL1A2) expression in CCD-18Co fibroblasts; assay type: cell-based; details: inhibitor 10 μM pretreatment 30 minutes; 72 hours; p=0.0005
Excerpt: Collagen (COL1A2) and total ERK protein expression was detected by Western blot analyses and quantitative image densitometry.

[3] = tested on: human colonic epithelial NCM460 cells; test: Cathelicidin protein level in conditioned media of NCM460 cells; assay type: cell-based; details: 5 mM; 16 hours; serum starved
Excerpt: (§1) FIGS. 16A-16F show sodium butyrate inhibited colonic TNFα expression but not colonic microflora load. […] The decrease of TNFα levels in Camp^−/− mice was minimized (drop by 4 pg/μg protein), compared to wild-type mice (drop by 6 pg/μg protein). […] All experiments are representative of 3 independent experiments.

UC disease activity = details: humans; Vernia et al. 2000; cited from earlier work
DSS mediated colitis [4] = test: DSS mediated colitis in mice, intraperitoneal sodium butyrate; assay type: in vivo
Excerpt: FIGS. 15A-15D show endogenous cathelicidin induction by sodium butyrate ameliorated DSS mediated colitis in mice. FIG. 15A is an illustration of the administration of DSS and/or sodium butyrate to mCRAMP deficient (Camp^−/−) and wild-type mice (i.e., the experimental plan).
as §1
To investigate the role of endogenous cathelicidin induction in the amelioration of acute colitis, mCRAMP deficient (Camp^−/−) and wild-type mice were administered with DSS and/or sodium butyrate as illustrated in FIG. 15A. DSS colitis led to significant tissue damages (FIG. 15C) with body weight loss (FIG. 15B) and increased histology score (FIG. 15C).

DSS mediated colitis [5] = details: animal models; Vieira et al. 2011; cited from earlier work
Raw264.7 macrophages = test: Camp mRNA expression in Raw264.7 macrophages; assay type: cell-based, mouse; details: 5 mM; 6 and 24 hours; serum starved

N#C/C(=C\c1ccc(O)c(O)c1)C(=O)c1ccc(O)c(O)c1 [AG538]
LPS induced TNFα expression under IGF-1R inhibition ([1]; 16 hours): not affected

N#C/C(=C\c1ccc2oc(=O)[nH]c2c1)C(=O)c1ccc(O)c(O)c1 [AGL2263]
LPS induced TNFα expression under IGF-1R inhibition ([1]; 16 hours): not affected

CN([C@@H](Cc1ccc(OS(=O)(=O)c2cccc3cnccc23)cc1)C(=O)N1CCN(c2ccccc2)CC1)S(=O)(=O)c1cccc2cnccc12 [KN62]
effect on the anti-inflammatory effect of cathelicidin against LPS ([1]; antagonist 10 μM pretreatment 30 minutes, mCRAMP 10 μM, 16 hours): did not alter the anti-inflammatory effect of cathelicidin

COc1cccc(-c2cc(=O)c3ccccc3o2)c1N [PD98059]
involvement in the LL-37 mediated inhibition of β-tubulin expression (CCD-18Co fibroblasts; inhibitor 10 μM pretreatment 30 minutes, LL-37 10 μM, 72 hours): not involved

N#CC(=C(/N)Sc1ccccc1N)/C(C#N)=C(\N)Sc1ccccc1N [U0126]
LPS induced TNFα expression [1]: inhibited; also recorded: suppressed LPS induced TNFα expression

C=C1[C@@H](C)[C@H]2[C@H](Cc3ccccc3)NC(=O)[C@]23OC(=O)/C=C/[C@H](O)CCC[C@@H](C)C/C=C/[C@H]3[C@@H]1O [cytochalasin B]
TGF-β1 and IGF-1 induced COL1A2 expression [2]: affected | tubulin distribution (tubulin tracker) (CCD-18Co fibroblasts; 10 μM, 24 hours): shrunk tubulin network in cells | TGF-β1 and IGF-1 induced β-tubulin expression (CCD-18Co fibroblasts; inhibitor 10 μM pretreatment 30 minutes, 72 hours, p=0.0005): affected

CCCC(=O)[O-].[Na+] [sodium butyrate]
cathelicidin protein level in conditioned media [3]: significantly increased | clinical UC disease activity (UC disease activity): reduce clinical UC disease activity | decrease of colonic TNFα levels (DSS mediated colitis [4]; Camp−/− mice): 21 % reduction | drop of colonic TNFα levels (DSS mediated colitis [4]; Camp−/− mice): 4 pg/μg protein | colonic microflora load (16S expression, PCR) (DSS mediated colitis [4]; DSS exposed mice): did not cause significant change; also recorded: did not alter colonic 16S expression | colonic Camp mRNA expression (DSS mediated colitis [4]; DSS treated mice): significantly induced; also recorded: further augmented | colonic mCRAMP protein expression (Western blot) (DSS mediated colitis [4]; DSS treated wild-type mice): significantly induced; also recorded: increased colonic mCRAMP protein expression | colonic TNFα levels (DSS mediated colitis [4]; both wild-type and Camp−/− mice, p=0.04): significantly reduced colonic TNFα levels | decrease of colonic TNFα levels (DSS mediated colitis [4]; wild-type mice): 40 % reduction | drop of colonic TNFα levels (DSS mediated colitis [4]; wild-type mice): 6 pg/μg protein | histology score (DSS mediated colitis [4]; wild-type mice, intraperitoneal): significant decrease of histology score | DSS mediated colitis (DSS mediated colitis [5]): reduce | Camp mRNA expression (Raw264.7 macrophages): significantly increased Camp mRNA expression

mouse IGF-1: mouse insulin like growth factor-1
effect on the mCRAMP mediated inhibition of LPS induced TNFα secretion ([1]; mouse IGF-1 80 pg/ml pretreatment 30 minutes, mCRAMP 10 μM, 16 hours): reversed the mCRAMP mediated inhibition

pertussis toxin
effect on the inhibitory effect of cathelicidin against LPS induced TNFα expression ([1]; pertussis toxin 500 ng/ml pretreatment overnight, mCRAMP 1-10 μM, 16 hours): reversed; also recorded: revered

— patent US9772334B2, “Inflammatory bowel disease markers and therapies for colitis-associated intestinal fibrosis” (THE REGENTS OF THE UNIVERSITY OF CALIFORNIA, priority 2012, dated 2017)
